Measurements as given in patent publication US5776886A, “Intravaginal preparation containing physiologically active peptide” (Teikoku Seiyaku Kabushiki Kaisha, priority 1993, dated 1998).

Test system: calcium level in the serum
Assay: Experiment 5: sucrose fatty acid ester with various organic acids, serum calcium reduction
Assay type: in vivo, Wistar rats
Conditions: for Reduction rate (%) of calcium level in the serum: intravaginal suppository 20 μg, rats
Protocol: An intravaginal suppository was administered into the rat's vagina, and the blood was collected periodically (2, 4 and 6 hours after administration of the test preparation).
The serum was separated, and the calcium level in the serum was determined by using a kit for determination of calcium (Calcium C Test Wako; manufactured by Wako Pure Chemical Industries, Ltd.) (n=3).
In the same manner as in Experiment 1, each intravaginal suppository was administered to the rat's vagina, and the blood was collected periodically (2, 4 and 6 hours after administration of intravaginal suppository), and the calcium level in the serum thereof was determined (n=5).

Human calcitonin
Reduction rate (%) of calcium level in the serum (organic acid: citric acid (pH 4) + Ryoto-Sugar Ester R-970, 2 hr): 11.4%
Reduction rate (%) of calcium level in the serum (organic acid: citric acid (pH 4) + Ryoto-Sugar Ester R-970, 4 hr): 19.6%
Reduction rate (%) of calcium level in the serum (organic acid: citric acid (pH 4) + Ryoto-Sugar Ester R-970, 6 hr): 8.4%
Reduction rate (%) of calcium level in the serum (organic acid: lactic acid (pH 4) + Ryoto-Sugar Ester R-970, 2 hr): 17.0%
Reduction rate (%) of calcium level in the serum (organic acid: lactic acid (pH 4) + Ryoto-Sugar Ester R-970, 4 hr): 10.6%
Reduction rate (%) of calcium level in the serum (organic acid: lactic acid (pH 4) + Ryoto-Sugar Ester R-970, 6 hr): 5.4%
Reduction rate (%) of calcium level in the serum (organic acid: malic acid (pH 4) + Ryoto-Sugar Ester R-970, 2 hr): 18.6%
Reduction rate (%) of calcium level in the serum (organic acid: malic acid (pH 4) + Ryoto-Sugar Ester R-970, 4 hr): 13.0%
Reduction rate (%) of calcium level in the serum (organic acid: malic acid (pH 4) + Ryoto-Sugar Ester R-970, 6 hr): 7.0%
Reduction rate (%) of calcium level in the serum (organic acid: tartaric acid (pH 4) + Ryoto-Sugar Ester R-970, 2 hr): 12.2%
Reduction rate (%) of calcium level in the serum (organic acid: tartaric acid (pH 4) + Ryoto-Sugar Ester R-970, 4 hr): 8.0%
Reduction rate (%) of calcium level in the serum (organic acid: tartaric acid (pH 4) + Ryoto-Sugar Ester R-970, 6 hr): 3.4%
calcium level (sucrose fatty acid ester with citric, tartaric, lactic or malic acid): significantly reduced regardless of any organic acid to be used
